Counter-ions that a name gives are not always drawn. Like-named read-outs stand apart in the source and are kept apart here.
Tests used:
[1] = system: phenylephrine-induced hypertension; assay: Alpha-blocking activity in vivo: antagonism of phenylephrine-induced hypertension in rats with spinal cord removal and bivagotomy; conditions: Rattus norvegicus, intravenous
Procedure: (§1) Alpha-blocking activity was determined in vivo in mice with the test involving inhibition of mydriasis induced by norepinephrine. […] Thirty minutes later, 0.75 mg/kg norepinephrine was administered intravenously. […] In vivo alpha-blocking activity was also evaluated by determination of antagonism of phenylephrine-induced hypertension. The test products were administered by the intravenous route to rats that had undergone spinal cord removal and bivagotomy according to the technique by J. S. Gillespie and T. S. Muir (Br. J. Pharmac. Chemother. 30:78-87, 1967). The dosage, maximum activity, and the interval after which residual activity was equal to 50% of the maximum activity are presented below: […]

[2] = Toxicity, intravenous administration to mice; format: in vivo; conditions: mouse, in vivo, intravenous, read-out: mortality rate
mice [3] = assay: Toxicity, intravenous administration to mice; format: in vivo; conditions: intravenous, 6.2 mg/kg
[4] = system: norepinephrine-induced mydriasis; assay: Alpha-blocking activity in vivo: inhibition of norepinephrine-induced mydriasis in mice; conditions: 30 min before 0.75 mg/kg norepinephrine IV
Procedure: as §1

mice [5] = assay: Toxicity, intraperitoneal administration to mice; conditions: mice, intraperitoneal dose of 200 mg per kg
[6] = system: spontaneously hypertensive rats; assay: Antihypertensive activity, spontaneously hypertensive rats, oral, arterial pressure at the tail; format: in vivo; conditions: 100 mg/kg
Procedure: In another experiment that was also performed with oral administration in spontaneously hypertensive rats, arterial pressure was measured indirectly at the tail two, four and six hours after administration.

[7] = system: mice with hypercholesterolemia; assay: Hypolipidemic activity in mice with diet-induced hypercholesterolemia; format: in vivo; conditions: oral 100 mg/kg on the sixth and seventh day
Procedure: Hypolipidemic Activity: In mice with hypercholesterolemia produced by a diet high in cholesterol and cholic acid fed for seven days, administration of an oral dose of 100 mg/kg COR 2865 on the sixth and seventh day brought about a reduction in serum cholesterol of 31% and a reduction of HP-betalipoproteins of 38% as well as a decrease in the VLDL+LDL/cholesterol ratio.

[8] = Toxicity, oral administration to mice; format: in vivo; conditions: mouse, in vivo, oral route, confidence interval in parentheses
[9] = system: climbing induced by apomorphine; assay: Neuroleptic activity: climbing test (apomorphine) in mice; format: in vivo; conditions: apomorphine 1.5 mg/kg
Procedure: The neuroleptic activity of COR 2865 was determined in the climbing test. […] They were given 1.5 mg/kg apomorphine in order to induce a maximum climbing level.

[10] = system: stereotypy induced by apomorphine; assay: Neuroleptic activity: inhibition of apomorphine-induced stereotypy in rats; conditions: 100 mg/kg intraperitoneal, apomorphine 2.5 mg/kg subcutaneous

CCOc1ccccc1N1CCN(CCOc2cc(C)c(O)cc2C(C)C)CC1 [COR 2865, 5-Isopropyl-2-methyl-4-((2-ethoxyphenyl)piperazinylethoxy) phenol hydrochloride]
ED50 ([1]; 2 min, after 2 min): 0.0117 µmol/kg
ED50 ([1]; 0.5 h, after 30 min): 0.318 µmol/kg
ED50 ([1]; 1 h, after 60 min): 0.5 µmol/kg
inhibition in vivo at 1 µM, 1 µmol/kg ([1]; 10^-6 M/kg, read-out: maximum activity (antagonism of phenylephrine-induced hypertension)): 122%
mortality ([2]; 12.5 mg/kg): 10%
mortality ([2]; 25 mg/kg): 20%
mortality ([2]; 50 mg/kg): 5%
mortality ([2]; 100 mg/kg): 90%
deaths (mice [3]): no deaths
inhibition of mydriasis ([4]; 1 mg/kg intraperitoneal): 54%
inhibition of mydriasis ([4]; 2.5 mg/kg intraperitoneal): 80%
deaths (mice [5]): no deaths
pressure reduction ([6]; four hours after administration): 21%
pressure reduction ([6]; six hours after administration): 23%
pressure reduction ([6]; two hours after administration): 19%
reduction in serum cholesterol [7]: 31%
reduction of HP-betalipoproteins [7]: 38%
LD50 [8]: 1440 mg/kg
inhibition of the climbing induced by apomorphine ([9]; 10 mg per kg intraperitoneal): 83%
inhibition of the climbing induced by apomorphine ([9]; 25 mg/kg intraperitoneal): 100%
inhibition of apomorphine-induced stereotypy [10]: 67%

Source: patent US4721715A, “Derivatives of 4-(arylpiperazinyl-ethylaminoethoxy) phenol useful for effecting hypolipidemic therapy or cardiovascular therapy” (Societe Cortial, S.A., priority 1984, dated 1988)
